Structures are written as SMILES.

The target of this experiment is T1, rhCRTh2 (Homo sapiens, UniProt Q9Y5Y4).
T1 construct: expressed in transfected cells; expression induced with sodium butyrate; membrane preparation
T1 sequence (Q9Y5Y4 1-395): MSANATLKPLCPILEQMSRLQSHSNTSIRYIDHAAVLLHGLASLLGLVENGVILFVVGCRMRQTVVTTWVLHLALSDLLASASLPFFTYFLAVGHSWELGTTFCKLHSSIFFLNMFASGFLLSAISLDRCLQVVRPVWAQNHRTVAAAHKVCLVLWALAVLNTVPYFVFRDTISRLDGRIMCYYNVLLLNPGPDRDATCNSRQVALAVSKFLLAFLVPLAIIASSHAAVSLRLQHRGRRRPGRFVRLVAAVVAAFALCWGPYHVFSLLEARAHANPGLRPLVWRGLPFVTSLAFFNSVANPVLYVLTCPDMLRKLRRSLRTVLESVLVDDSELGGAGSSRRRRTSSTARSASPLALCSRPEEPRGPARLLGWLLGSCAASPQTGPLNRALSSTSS
The experiment can be described thus: Ligand binding assay, [3H]PGD2 SPA on HEK cell membranes. The following applies: [3H]PGD2 displacement; membranes of HEK cells expressing rhCRTh2/Gα16; SPA beads; 2 h at RT; read-out: pIC50 value (converted). As for the experimental part: [^3H]PGD2 was purchased from Perkin Elmer Life Sciences with a specific activity of 100-210 Ci/mmol. All other chemicals were of analytical grade.
HEK cells expressing rhCRTh2/Gα16 were routinely maintained in DMEM containing 10% Foetal Bovine Serum (HyClone), 1 mg/ml geneticin, 2 mM L-glutamine and 1% non-essential amino acids. For the preparation of membranes, the adherent transfected HEK cells were grown to confluence in two layer tissue culture factories (Fisher, catalogue number TKT-170-070E). Maximal levels of receptor expression were induced by addition of […] sodium butyrate for the last 18 h of culture. The adherent cells were washed once with phosphate buffered saline (PBS, 50 ml per cell factory) and detached by the addition of 50 ml per cell factory of ice-cold membrane homogenisation buffer [20 mM HEPES (pH 7.4), 0.1 mM dithiothreitol, 1 mM EDTA, 0.1 mM phenyl methyl sulphonyl fluoride and 100 μg/ml bacitracin]. […] The final pellet was re-suspended in 4 ml of membrane homogenisation buffer per cell factory used and the protein content determined. […]
All assays were performed in Corning clear bottomed, white 96-well NBS plates (Fisher). […] (The optimum coating concentrations were determined for each batch of membranes) The beads were pelleted by centrifugation (800×g for 7 minutes at 4° C.), washed once with assay buffer (50 mM HEPES pH 7.4 containing 5 mM magnesium chloride) and finally re-suspended in assay buffer at a bead concentration of 10 mg/ml.
Each assay contained 20 μl of 6.25 nM [^3H]PGD2, 20 μl membrane saturated SPA beads both in assay buffer and 10 μl of compound solution or 13,14-dihydro-15-keto prostaglandin D2 (DK-PGD2, for determination of non-specific binding, Cayman chemical company). […] The assay plate was incubated at RT for 2 h and counted on a Wallac Microbeta liquid scintillation counter (1 minute per well).
Turning to `C[C@H]1CN(Cc2cc(Cl)ccc2CCC(=O)O)CCN1C(=O)Cc1ccccc1` [Example 4, 3-(4-chloro-2-{[(3S)-3-methyl-4-(phenylacetyl)piperazin-1-yl]methyl}phenyl)propanoic acid], the IC50 is 79.4 nM.
Next, `C[C@H]1CN(Cc2cc(Cl)ccc2CC(=O)O)CCN1C(=O)Cc1ccc(F)cc1F` [Example 12, [4-chloro-2-({(3S)-4-[(2,4-difluorophenyl)acetyl]-3-methylpiperazin-1-yl}methyl)phenyl]acetic acid]: 7.94 nM.
For the compound `C[C@H]1CN(Cc2cc(Cl)ccc2CC(=O)O)CCN1S(=O)(=O)c1ccccc1` [Example 9, (4-chloro-2-{[(3S)-3-methyl-4-(phenylsulfonyl)piperazin-1-yl]methyl}phenyl)acetic acid], the IC50 was 14.1 nM.

For the origin of these results see patent publication US20080255150A1, “Novel Compounds” (ASTRAZENECA AB, priority 2005, published 2008).
